Data taken from PubChem BioAssay (NCI).
Values joined by “and” are separate entries in the source; they are usually repeats but may differ in a detail not shown here. Identical values can stand only once.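 Where inhibition never reached the appropriate level, the endpoint shown equals the highest concentration tested. Otherwise, values were interpolated linearly from a five-concentration, 48-hour dose response in 96-well plates. GI50 = concentration required for 50% inhibition of growth. TGI is the concentration that stops growth completely.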

Tests used:
Test in all cases: NCI tumour cell line growth inhibition, 48 h
A498 renal = test system: A498 renal
OVCAR-3 ovarian = test system: OVCAR-3 ovarian
SR leukemia = test system: SR leukemia
NCI-H522 lung = test system: NCI-H522 lung
MALME-3M melanoma = test system: MALME-3M melanoma
UACC-257 melanoma = test system: UACC-257 melanoma
SK-MEL-5 melanoma = test system: SK-MEL-5 melanoma
NCI-H23 lung = test system: NCI-H23 lung
PC-3 prostate = test system: PC-3 prostate
ACHN renal = test system: ACHN renal

Row | Compound | GI50 (A498 renal) [µM] | TGI (A498 renal) | GI50 (OVCAR-3 ovarian) | TGI (OVCAR-3 ovarian) | GI50 (SR leukemia) | TGI (SR leukemia) | GI50 (NCI-H522 lung) | TGI (NCI-H522 lung) | GI50 (MALME-3M melanoma) | TGI (MALME-3M melanoma) | GI50 (UACC-257 melanoma) | TGI (UACC-257 melanoma) | GI50 (SK-MEL-5 melanoma) | TGI (SK-MEL-5 melanoma) | GI50 (NCI-H23 lung) | TGI (NCI-H23 lung) | GI50 (PC-3 prostate) | TGI (PC-3 prostate) | GI50 (ACHN renal) | TGI (ACHN renal)
1 | CN(C)CCN1C(=O)c2ccccc2N(C)c2ccccc21 | > 100 | > 100 µM | > 100 µM | > 100 µM | > 100 µM | > 100 µM | > 100 µM | > 100 µM | > 100 µM | > 100 µM | > 100 µM | > 100 µM | > 100 µM | > 100 µM | > 100 µM | > 100 µM | > 100 µM | > 100 µM | > 100 µM | > 100 µM
2 | C=C(C)C(=O)Nc1ccc(NC(C)C)cc1 | > 100 | > 100 µM | > 100 µM | > 100 µM | > 100 µM | > 100 µM | > 100 µM | > 100 µM | > 100 µM | > 100 µM | > 100 µM | > 100 µM | > 100 µM | > 100 µM | > 100 µM | > 100 µM | > 100 µM | > 100 µM | > 100 µM | > 100 µM
3 | COc1ccc(C(=O)c2cc(OC)c(OC)c(OC)c2)cc1OC(=O)CCl | 2.07 | 7.01 µM | 0.0287 µM |  | < 0.01 µM | > 100 µM | 0.0196 µM | > 100 µM |  | > 100 µM | > 100 µM | > 100 µM | 0.0338 µM | 0.434 µM | 0.0653 µM | > 100 µM | < 0.0192 µM | > 100 µM | < 0.0267 µM | 98.7 µM
4 | C=C1C(=O)O[C@H]2[C@H]1CC/C(COC(=O)NCc1cn(C)c3ccccc13)=C\CC[C@@]1(C)O[C@@H]21 | 3.21 | 12.1 µM | 1.03 µM | 2.3 µM | 0.395 µM | 4.61 µM | 1.02 µM | 2.44 µM | 1.92 µM | 3.64 µM | 1.56 µM | 4.03 µM | 1.41 µM | 2.74 µM | 2.01 µM | 4.69 µM | 1.76 µM | 4.79 µM | 0.533 µM | 1.81 µM
5 | Cc1cccc(C)c1NC(=O)C(C#N)C1=C(Cl)C(=O)c2ccccc2C1=O (stereo unspecified) |  | 29.3 µM |  | 26.9 µM |  | > 45.8 µM |  | 26.2 µM |  | 30.4 µM |  | 21.6 µM |  | 26.7 µM |  | 44 µM |  | 28.9 µM |  | 28.8 µM
6 | CN(O)c1nc(N(C)O)nc(N2CCOCC2)n1 | 14.9 | > 100 µM | 10.2 µM | > 100 µM | 4.01 µM | > 100 µM | 4.03 µM | > 100 µM | 12.3 µM | > 100 µM | 5.57 µM | 92.2 µM | 4.09 µM | > 100 µM | 12.4 µM | > 100 µM | 7.82 µM | > 100 µM | 1.1 µM | > 100 µM
7 | CN[C@@H](C)C(=O)N[C@H](C(=O)N1CCC[C@H]1C(=O)Nc1snnc1-c1ccccc1)C1CCCCC1 | 19.5 | 57.3 µM | 58.5 µM | > 100 µM | 20.7 µM | > 69.7 µM | 18.3 µM | 53.4 µM | 11.5 µM | 26.2 µM | 0.405 µM | 25.5 µM | 16.7 µM | 33.9 µM | 38.4 µM | > 100 µM | 48.6 µM | > 100 µM | 52.7 µM | > 100 µM
8 | COc1cc(C[C@H]2c3cc(OC)c(OC)cc3CCN2C)c(Oc2cc3c(cc2OC)-c2c(OC)c(OC)cc4c2[C@H](C3)N(C)CC4)cc1OC |  | 25.1 µM and 21.2 µM | 11.8 µM | 23.6 µM and 24.8 µM | 2.44 µM | 28.6 µM and 7.84 µM | 5.13 µM | 16.2 µM and 17 µM | 5.39 µM | 17 µM and 10.2 µM | 1.8 µM | 8.76 µM and 3.37 µM | 1.97 µM | 11.1 µM and 3.58 µM | 17.8 µM | 30.2 µM and 36.2 µM |  | 33.7 µM | 14.5 µM | 30 µM and 27.5 µM
9 | COc1ccc2nc3cccc([N+](=O)[O-])c3c(NCCCCCC(=O)O)c2c1 | 1.87 | 4.28 µM | 0.12 µM | 2.64 µM | 0.0395 µM |  | 0.0363 µM | 0.101 µM | 0.0437 µM | 0.194 µM | 0.257 µM | 0.926 µM | 0.0116 µM | 0.0694 µM | 0.952 µM | 4.19 µM |  | 1.36 µM | 0.0562 µM | 0.582 µM
10 | CCN(CC)CCCC(C)Nc1ccnc2cc(Oc3ccccc3)ccc12 (stereo unspecified) |  | 7.85 µM and 28.5 µM | 13.7 µM and 22 µM | 34.2 µM and > 100 µM | 2.6 µM and 2.27 µM | 12.9 µM and 6.66 µM | 3.06 µM and 3.77 µM | 13 µM and 17 µM | 6.03 µM and 2.29 µM | 12.3 µM and 4.47 µM | 1.95 µM and 2.09 µM | 3.59 µM and 3.94 µM | 1.69 µM and 1.8 µM | 3.22 µM and 3.37 µM | 10.4 µM and 22.8 µM | 28.7 µM and > 100 µM | 8.89 µM and 19.3 µM | 35.5 µM and > 100 µM | 5.61 µM and 6.72 µM | 26.2 µM and 29 µM
11 | C=C1CCC2C3(C)COC(c4ccc(N(C)C)cc4)OC3CCC2(C)C1C/C=C1/C(=O)OCC1O (stereo unspecified) | 6.25 | 17.1 µM | 1.96 µM | 3.98 µM | 1.15 µM | 3.77 µM | 3.22 µM | 14 µM | 7.83 µM | 22.2 µM | 13.1 µM | 26.8 µM | 7.2 µM | 20.3 µM | 4.37 µM | 15.7 µM | 2.32 µM | 9.83 µM | 9.16 µM | 21.4 µM
12 | Cc1cc(O)c(C(C)C)cc1S(=O)(=O)O (tested in a mixture with another compound) | 0.244 | 2.16 µM | 0.259 µM |  | 0.16 µM |  | 0.238 µM |  | 0.774 µM |  | 0.963 µM |  | 0.394 µM | 1.44 µM | 0.427 µM | > 100 µM and 10.4 µM | 0.318 µM | 9.01 µM | 1.04 µM | > 100 µM and 10.9 µM
13 | COc1cc(OC(=O)c2ccccc2)cc2c1C(=O)C=CC2=O |  | 37.8 µM |  | 14.2 µM |  | 5.03 µM |  | 12.4 µM |  | 27 µM |  | 31.6 µM |  | 30.6 µM |  | 33.3 µM |  | 28.5 µM |  | 26.4 µM
14 | Cc1c(C(N)=O)sc2c1C(=O)N(Cc1ccccc1)C1=NN=C(c3ccc(Cl)cc3)CN12 | 2.88 | 12.7 µM | 3.75 µM | 16.4 µM | 3.14 µM | 50.7 µM | 3.19 µM | 13.2 µM | 3.29 µM | 16.4 µM | 3.75 µM | 16.5 µM | 1.84 µM | 4.76 µM | 3.86 µM | 19.4 µM | 3.84 µM | 20.9 µM | 3.02 µM | 11.6 µM
15 | CC(C)(C)OC(=O)N1CCN(CCn2cc(C(F)(F)F)c3c(Cl)ncnc32)CC1 | 18.2 | 32.7 µM | 1.88 µM | 3.66 µM | 2.94 µM | > 100 µM | 15.1 µM | 29.9 µM | 13.3 µM | 27.7 µM | 3.31 µM | 10.4 µM | 4.19 µM | 14.5 µM | 2 µM | 4.32 µM | 1.79 µM | 3.43 µM | 16.9 µM | 39.3 µM
16 | COc1c(C)c2c(c(O)c1C/C=C(\C)CCC(=O)O)C(=O)OC2 | 0.42 | > 100 µM | 0.286 µM | > 100 µM | 0.158 µM | > 100 µM | 0.262 µM | > 100 µM | 0.714 µM | > 100 µM | 0.434 µM | > 100 µM | 0.411 µM | > 100 µM | 0.282 µM | > 100 µM | 0.61 µM | > 100 µM | 0.457 µM | > 100 µM
17 | c1ccc2[nH]c(-c3ccc(-c4nccc5c4[nH]c4ccccc45)cc3)nc2c1 | 11.4 | 25.5 µM | 1.8 µM | 3.64 µM | 2.21 µM | 6.36 µM | 2.06 µM | 5.04 µM | 1.85 µM | 3.61 µM | 1.83 µM | 3.5 µM | 3.69 µM | 14.3 µM | 3.47 µM | 17.7 µM | 8.59 µM | 25.1 µM | 2.05 µM | 4.17 µM
18 | FC(F)(F)c1ccc(Nc2nc(-c3c(C(F)(F)F)nc4ccccn34)cs2)cc1 | 0.0268 | 0.193 µM | 0.0264 µM | 0.0787 µM | 0.0402 µM | > 39.4 µM | 0.0284 µM | 0.754 µM | 0.064 µM | 4.63 µM | 2.06 µM | 8.64 µM | 0.0358 µM | 1.49 µM | 0.0579 µM | 5.51 µM | 0.0425 µM | 8.54 µM | 0.061 µM | 6.83 µM
19 | O=C(O)CNC(=O)c1ccc(-c2ccccc2)cc1 |  | > 100 µM |  | > 100 µM |  | > 100 µM |  | > 100 µM |  | > 100 µM |  | > 100 µM |  | > 100 µM |  | > 100 µM |  | > 100 µM |  | > 100 µM
20 | COc1ccc(-c2cc(=O)[nH]c3c(OC)c4ccccc4c(OC)c23)cc1 | 0.145 |  | 0.165 µM | 0.713 µM | 0.431 µM | > 100 µM | 0.284 µM | 3.26 µM | 2.99 µM | > 100 µM |  | > 100 µM | 0.398 µM | > 100 µM | 0.817 µM | > 100 µM | 0.382 µM | > 100 µM | 0.663 µM | > 100 µM
21 | CC(C)(C)n1cc(-c2ccnc(NCCCNS(=O)(=O)c3ccc(C(F)(F)F)cc3)c2)c(-c2cccc(O)c2)n1 | 1.54 | 4.2 µM | 1.96 µM | 3.84 µM | 2.21 µM | 10.5 µM | 1.99 µM | 3.98 µM | 1.72 µM | 3.38 µM | 2.07 µM | 4.6 µM | 1.6 µM | 2.97 µM | 1.67 µM | 3.18 µM | 1.64 µM | 3.72 µM | 1.88 µM | 3.54 µM
